These results are taken from publication PMC8509398, “Proteolytic Cleavage of Bioactive Peptides and Protease-Activated Receptors in Acute and Post-Colitis” (International Journal of Molecular Sciences, 2021).

The series in a line: Cleavage of peptides by colonic tissue lysates from TNBS-induced colitis rat model, MALDI-TOF/TOF. Particulars: 10 µM peptide, 20 µg/mL protein, 37 °C; for Processing by colonic samples, in words (comparison of control, post-colitis and acute colitis): rat colonic lysates, up to 30 min, n = 8 per group; for Number of colonic samples in which the TL-sequence unmasking cleavage was observed, acute colitis: acute colitis lysates; for Number of colonic samples in which the TL-sequence unmasking cleavage was observed, post-colitis: post-colitis lysates. On the procedure: Adult male Sprague–Dawley rats (200–225 g; Charles River, Wilmington, MA, USA) were used in a previously described TNBS-induced acute and post-inflammatory model. Rats were housed at constant room temperature (22 ± 2 °C) and humidity (60%) with two rats per cage, unlimited access to water and food and on a 12 h–12 h light/dark cycle.
After an overnight fast, TNBS colitis was induced using a TNBS-enema (4 mg TNBS; Sigma-Aldrich, 50% ethanol) as described previously. Rats were anesthetized with a mixture of ketamine (35 mg/kg i.p.; Ketalar®, Pfizer, New York City, NY, USA) and xylazine (5 mg/kg i.p.; Rompun®, Bayer, Leverkusen, Germany), and the TNBS-enema or 0.9% saline was administered intrarectally using a flexible catheter (18 G, length 4.5 cm) to colitis and control rats, respectively. Animals were kept in a tail-up position for 1 min and were then allowed to recover in their cages with free access to water and food. […] For the post-colitis group (n = 8), a colonoscopy was performed starting from day 10 and repeated every 4 days until complete mucosal healing was observed. The rats were then sacrificed as well and colonic samples were taken.
Colonic lysates were prepared for studying their effects on cleavage patterns of added peptides with a MALDI-TOF/TOF assay. After sacrifice, a sample of approximately 50 mg of distal colon was taken from each rat. The colonic samples were immediately rinsed with Krebs solution, snap-frozen and stored at −80 °C until further processing. Sample preparation started with crushing the colonic samples on dry ice. Liquid nitrogen was used to prevent the loss of enzymatic activity due to temperature increases and the colon powders were stored at −80 °C for further experiments. […] After centrifugation, the supernatants were collected and used immediately to prepare the reaction mixtures, measure proteolytic activities with fluorogenic substrates and determine the protein content with a Bradford assay.
Colonic lysate was added to a peptide of interest to obtain the reaction mixtures with the colonic samples. Lysate and peptide were diluted so each mixture contained 10 µM peptide of interest and 20 µg/mL protein originating from the colonic tissue. These peptide and protein concentrations were based on research from Loew et al. and O’ Donoghue et al.. The mixtures were incubated at 37 °C for several incubation periods between 5 and 30 min. Afterward, the fragmentation reaction was stopped by adding trifluoroacetic acid (TFA; Alfa Aesar™, ThermoFisher, Waltham, MA, USA) to a final concentration of 2% and standard peptide (substance P, bradykinin or PAR3-based peptide) was added in a final concentration of 10 µM. Standard peptides were selected based on the mass of the peptides of interest. For each sample/peptide combination, a starting point was included as well. Here, TFA was added immediately after mixing the reaction constituents. Samples were stored at −80 °C for further MALDI-TOF/TOF experiments.
The TFA mixtures were thawed on ice and desalted using C18 zip-tips (Merck Millipore®, Burlington, MA, USA) with a capacity of 5 µg protein. Retained peptide fragments were eluted directly on the MALDI target plate. Next, 0.5 µL of a 2.5 mg/mL α-cyano-4-hydroxycinnamic acid (Sigma-Aldrich) matrix solution (in 70% acetonitrile, 0.1% TFA) was spotted on top of the sample. A 6-Peptide mixture Kit (AB Sciex, Framingham, MA, USA) containing bradykinin (2–9), angiotensin I, glu1-fibrinopeptide, ACTH (1–17), ACTH (18–39) and ACTH (7–38) was diluted with matrix and spotted on the plate as well.
MS and MS/MS data for peptide fragment identification were obtained with a MALDI-TOF/TOF instrument (4800 MALDI TOF/TOF™, Applied Biosystems, Waltham, MA, USA) and instrument parameters were set using 4000 Series Explorer™ software. MS spectra were recorded in positive reflector mode in a mass range from 500 to 4000 Da and laser intensity of 4500–4800 Hz.

Setting [1] is: n = 8, MALDI-TOF/TOF, PAR1-based after 30 min.
Where [2] appears, read: rat colonic lysate, 5-30 min, stopped with 2% TFA, MALDI-TOF/TOF relative intensity vs standard peptide, n = 8 animals.

Residues, ends and D or L forms follow the SMILES beside them.

On to `CC[C@H](C)[C@H](NC(=O)[C@H](CO)NC(=O)[C@H](CC(N)=O)NC(=O)[C@H](CC(C)C)NC(=O)[C@H](Cc1ccc(O)cc1)NC(=O)[C@H](CCCCN)NC(=O)[C@H](CCCCN)NC(=O)[C@@H](NC(=O)[C@H](C)NC(=O)[C@H](CCSC)NC(=O)[C@H](CCC(N)=O)NC(=O)[C@H](CCCCN)NC(=O)[C@H](CCCN=C(N)N)NC(=O)[C@H](CC(C)C)NC(=O)[C@H](CCCN=C(N)N)NC(=O)[C@@H](NC(=O)[C@H](Cc1ccc(O)cc1)NC(=O)[C@H](CC(N)=O)NC(=O)[C@H](CC(=O)O)NC(=O)[C@@H](NC(=O)[C@H](Cc1ccccc1)NC(=O)[C@@H](NC(=O)[C@H](C)NC(=O)[C@H](CC(=O)O)NC(=O)[C@H](CO)NC(=O)[C@@H](N)Cc1c[nH]cn1)C(C)C)[C@@H](C)O)[C@@H](C)O)C(C)C)C(=O)N[C@@H](CC(C)C)C(=O)N[C@@H](CC(N)=O)C(N)=O` [VIP, Vasoactive intestinal peptide], for which the “Processing by colonic samples, in words (comparison of control, post-colitis and acute colitis)” value (from here on “Processing by colonic samples, in words”) (MALDI-TOF/TOF) was “no differences”.

On to `CC[C@H](C)[C@H](NC(=O)[C@H](CO)NC(=O)[C@@H]1CCCN1C(=O)[C@@H](NC(=O)[C@H](CO)NC(=O)[C@H](CC(=O)O)NC(=O)[C@H](CC(=O)O)NC(=O)CNC(=O)CNC(=O)CNC(=O)[C@@H](NC(=O)[C@H](CO)NC(=O)CNC(=O)[C@H](CO)NC(=O)[C@H](CCC(=O)O)NC(=O)[C@H](CC(=O)O)NC(=O)[C@H](Cc1ccc(O)cc1)NC(=O)[C@@H](NC(=O)[C@H](CO)NC(=O)[C@@H]1CCCN1C(=O)[C@@H](NC(=O)[C@H](CCC(N)=O)NC(=O)[C@@H](NC(=O)CNC(=O)CN)[C@@H](C)O)[C@@H](C)O)C(C)C)[C@@H](C)O)[C@@H](C)O)C(=O)N[C@@H](CC(C)C)C(=O)N1CCC[C@H]1C(=O)N[C@@H](C)C(=O)N1CCC[C@H]1C(=O)N[C@@H](CCCNC(=N)N)C(=O)NCC(=O)N[C@@H](Cc1ccc(O)cc1)C(=O)N1CCC[C@H]1C(=O)NCC(=O)N[C@@H](CCC(N)=O)C(=O)N[C@H](C(=O)N[C@@H](CS)C(=O)N[C@@H](C)C(=O)N[C@@H](CC(N)=O)C(=O)N[C@@H](CC(=O)O)C(N)=O)C(C)C` [PAR4-based] (H-GGTQTPSVYDESGSTGGGDDSTPSILPAPRGYPGQVCAND-NH2), for which, under setting [1], the “Number of colonic samples in which the TL-sequence unmasking cleavage was observed, acute colitis” value is recorded as “five out of eight” and the “Number of colonic samples in which the TL-sequence unmasking cleavage was observed, post-colitis” value is reported as “two out of eight”. Moreover, the “Incubation time after which processing was significant (decrease of full-length peptide or increase of fragment), post-colitis samples” value under setting [2] is listed as “not in post-colitis samples”.

For the compound `CC[C@H](C)[C@H](NC(=O)[C@@H]1CCCN1C(=O)[C@H](CC(C)C)NC(=O)[C@@H](NC(=O)[C@@H]1CCCN1C(=O)[C@H](CCCCN)NC(=O)[C@H](C)NC(=O)[C@H](CC(C)C)NC(=O)[C@H](CC(N)=O)NC(=O)[C@H](CC(N)=O)NC(=O)[C@@H](NC(=O)[C@H](CC(=O)O)NC(=O)[C@H](CC(N)=O)NC(=O)[C@H](CCC(=O)O)NC(=O)[C@H](CCSC)NC(=O)CN)[C@@H](C)O)[C@@H](C)O)C(=O)N[C@@H](CCCCN)C(=O)N[C@H](C(=O)N[C@@H](Cc1ccccc1)C(=O)N[C@@H](CCCNC(=N)N)C(=O)NCC(=O)N[C@@H](C)C(=O)N1CCC[C@H]1C(=O)N1CCC[C@H]1C(=O)N[C@@H](CC(N)=O)C(=O)N[C@@H](CO)C(=O)N[C@@H](Cc1ccccc1)C(=O)N[C@@H](CCC(=O)O)C(N)=O)[C@@H](C)O` [PAR3-based] (H-GMENDTNNLAKPTLPIKTFRGAPPNSFE-NH2), the “Incubation time after which processing was significant (decrease of full-length peptide or increase of fragment), acute colitis samples” value (rat colonic lysate, acute TNBS colitis, 5-30 min, stopped with 2% TFA, MALDI-TOF/TOF relative intensity vs standard peptide, n = 8 animals) worked out at 30 min. Under “rat colonic lysate, control, 5-30 min, stopped with 2% TFA, MALDI-TOF/TOF relative intensity vs standard peptide, n = 8 animals”, the “Incubation time after which processing was significant (decrease of full-length peptide or increase of fragment), control samples” value is listed as “No C- or N-terminal fragments could be detected”. The “Incubation time after which processing was significant (decrease of full-length peptide or increase of fragment), post-colitis samples” value under setting [2] is “trend towards an increase of the C-terminal fragment”. Besides, the “Processing by colonic samples, in words” value (MALDI-TOF/TOF) was “cleaved slowly”.

Take `CC[C@H](C)[C@H](NC(=O)[C@H](CC(C)C)NC(=O)[C@H](CO)NC(=O)[C@H](CCCNC(=N)N)NC(=O)CNC(=O)[C@H](CCCCN)NC(=O)[C@H](CO)NC(=O)[C@H](CO)NC(=O)[C@H](CCCNC(=N)N)NC(=O)[C@H](CC(N)=O)NC(=O)[C@@H](NC(=O)CNC(=O)[C@H](CCC(N)=O)NC(=O)[C@@H](NC(=O)[C@@H](N)[C@@H](C)O)[C@@H](C)CC)[C@@H](C)O)C(=O)NCC(=O)N[C@@H](CCCCN)C(=O)N[C@H](C(=O)N[C@@H](CC(=O)O)C(=O)NCC(=O)N[C@H](C(=O)N[C@@H](CO)C(=O)N[C@@H](Cc1c[nH]cn1)C(=O)N[C@H](C(N)=O)C(C)C)[C@@H](C)O)C(C)C` [PAR2-based] (H-TIQGTNRSSKGRSLIGKVDGTSHV-NH2): under setting [1], the “Number of colonic samples in which the TL-sequence unmasking cleavage was observed, acute colitis” value is on record as “four out of eight” and the “Number of colonic samples in which the TL-sequence unmasking cleavage was observed, post-colitis” value is “three out of eight”. Under “control lysates, n = 8, MALDI-TOF/TOF, PAR1-based after 30 min”, the “Number of colonic samples in which the TL-sequence unmasking cleavage was observed, control” value is “two out of eight”. Also, the “Processing by colonic samples, in words” value (MALDI-TOF/TOF) is given as “no differences”.

For `CC[C@H](C)[C@H](NC(=O)[C@H](C)NC(=O)[C@H](CC(N)=O)NC(=O)[C@H](CCCCN)NC(=O)[C@H](Cc1ccccc1)NC(=O)[C@H](CC(C)C)NC(=O)[C@@H](NC(=O)[C@@H](NC(=O)[C@H](CC(C)C)NC(=O)[C@@H]1CCCN1C(=O)[C@@H](NC(=O)[C@H](CCC(N)=O)NC(=O)[C@H](CO)NC(=O)[C@H](CCCCN)NC(=O)[C@H](CCC(=O)O)NC(=O)[C@H](CO)NC(=O)[C@@H](NC(=O)[C@H](CCSC)NC(=O)[C@H](Cc1ccccc1)NC(=O)CNC(=O)CNC(=O)[C@@H](N)Cc1ccc(O)cc1)[C@@H](C)O)[C@@H](C)O)C(C)C)[C@@H](C)O)C(=O)N[C@H](C(=O)N[C@@H](CCCCN)C(=O)N[C@@H](CC(N)=O)C(=O)N[C@@H](C)C(=O)N[C@@H](Cc1ccc(O)cc1)C(=O)N[C@@H](CCCCN)C(=O)N[C@@H](CCCCN)C(=O)NCC(=O)N[C@@H](CCC(=O)O)C(=O)O)[C@@H](C)CC` [β-endorphin], the “Processing by colonic samples, in words” value (MALDI-TOF/TOF) was “cleaved more intensively by proteases in acute colitis samples”.
